{
  "source": "patent US4030886A",
  "about": "“Saturation analysis” (The Radiochemical Centre Limited, priority 1973, dated 1977)",
  "system": "antiserum raised in rabbit against estriol-6-CMO-BSA",
  "settings": "4 ng label, antiserum 1:200",
  "procedure": "Into each assay tube was dispensed 0.1M phosphate buffer containing 5% human serum (pH 7.0; 200μl), antiserum raised in rabbit against estriol-6-CMO-BSA and diluted 1:200 in 0.1M Phosphate buffer containing 5% human serum (200μl), and selenomethionine-Se75 conjugate of estriol-6-CMO (4 ng; 400 mCi/m mol). Standard amounts of estriol (1.25 ng, 10 ng and 20 ng) in human serum were added to each assay tube; to one tube was added buffer instead of antiserum as a blank. The contents of each tube were mixed and incubated at room temperature for one hour. Ammonium sulphate solution was then added (5.4g (NH4)2 SO4 = 10 ml H2 O; 500 μl) and after mixing, the solutions were centrifuged. The supernatant was removed and the precipitate counted in a gamma counter. The percentage of total counts bound to the precipitate was calculated.",
  "note": "Read-outs that look alike come from different tables or passages of the source.",
  "data": [
    {"substance": "selenomethionine-Se75 conjugate of estriol-6-carboxymethyloxime", "values": [
      {"measurement": "% of total counts bound minus blank", "setting": "0 ng estriol added", "result": 59.1, "unit": "%"},
      {"measurement": "% of total counts bound minus blank", "setting": "1.25 ng estriol added", "result": 55.3, "unit": "%"},
      {"measurement": "% of total counts bound minus blank", "setting": "10 ng estriol added", "result": 44.3, "unit": "%"},
      {"measurement": "% of total counts bound minus blank", "setting": "20 ng estriol added", "result": 39.0, "unit": "%"}
    ]}
  ]
}
